Earlier results on one molecule are cited in EP0602619A1, “Controlled-release pharmaceutical compositions containing nicergoline” (INVERNI DELLA BEFFA FARMACEUTICI S.r.l., priority 1992, dated 1994).

As to `CO[C@]12C[C@@H](COC(=O)c3cncc(Br)c3)CN(C)[C@@H]1Cc1cn(C)c3cccc2c13` [Nicergoline, 8-β-1,6-dimethyl-[(5-bromonicotinoyloxy)methyl]-10α-methoxyergoline], the “period of excretion of the administered dose” value (humans, urine and feces) is 3 to 4 days. The half-life result (in vivo) is listed as “very short”.
